System: participants with T1D
Experiment: Randomized crossover clinical trial (NCT04201496): CGM glycemic outcomes with 5 mg daily empagliflozin adjunctive to AID (Control-IQ, CIQ) or PLGS (Basal-IQ, BIQ)
Assay type: in vivo, human
Settings: for % CGM time <50 mg/dL (<2.8 mmol/L) / % CGM time <60 mg/dL (<3.3 mmol/L) / % CGM time <70 mg/dL (<3.9 mmol/L) / % CGM time >180 mg/dL (>10.0 mmol/L) / % CGM time >250 mg/dL (>13.9 mmol/L) / % CGM time >300 mg/dL (>16.7 mmol/L) / CGM HBGI / CGM LBGI: median (IQR)
Procedure: FIG. 2 presents a study analysis relative to baseline, control IQ (CIQ) (e.g., AID), and basal IQ (BIQ) (e.g., PLGS) implementation, according to investigation that is demonstrable of one or more embodiments herein. Therein, an experimental arm (G1, G2) providing an initial daily dose of 5 mg empagliflozin (EMPA) is depicted against a control arm (G3, G4) without such dosing (NOEMPA). Relative characteristics of the analysis are provided below.
Study Design: A single-center, randomized, controlled, unblinded, crossover clinical trial (NCT04201496) compared four parallel groups, two groups in the experimental arm (EMPA) with 5 mg daily empagliflozin as adjunctive therapy to PLGS or AID, and two groups in the control arm (NOEMPA) with no drug and with a PLGS system (Basal-IQ, Tandem Diabetes Care) or AID system (Control-IQ, Tandem Diabetes Care). The groups within each arm differed from one another in the order of the randomly assigned crossover technological intervention, relative to PLGS being followed by AID or AID being followed by PLGS, respectively (FIG. 4). The study protocol was approved by the University of Virginia Institutional Review Board (IRB). An investigational device exemption (IDE), including an investigational new drug (IND) application for empagliflozin, was approved by the FDA. Safety aspects were overseen by an external data and safety monitoring board (DSMB). Participants: Major inclusion criteria were T1D treated with insulin for at least one year, use of continuous subcutaneous insulin infusion therapy for at least six months, age 18-65 yrs., no use of glucose lowering agents other than insulin, and Hb1Ac<9% (75 mmol/mol). Randomization: A (1:1:1:1) randomization assigned participants to either Group 1, AID-EMPA (4 weeks) followed by PLGS-EMPA (2 weeks), Group 2, PLGS-EMPA (2 weeks) followed by AID-EMPA (4 weeks), Group 3, AID-NOEMPA (4 weeks) followed by PLGS-NOEMPA (2 weeks), and Group 4, PLGS-NOEMPA (2 weeks) followed by AID-NOEMPA (4 weeks). Procedures: After confirmation of eligibility, participants underwent study equipment and medication training (experimental arm), or only study equipment training (control arm). Study equipment consisted of Dexcom G6® CGM (Dexcom Inc., San Diego, CA), Contour® Next blood glucose (Ascensia Diabetes Care, Basel, Switzerland) and Precision Xtra® blood ketone meters (Abbott, Alameda, CA) with their respective test strips; infusion sets, and the use of the t:slim X2™ insulin pump with Basal-IQ or Control-IQ technologies (Tandem Diabetes Care, San Diego, CA), according to randomization. […] Participants in the experimental arm were asked to record two days of baseline ketone values before initiating the use of the study drug. Thereafter, participants were directed to use the study CGM with EMPA for 1-2 weeks. A tolerance to the medication was assessed prior to the starting of the next study phase, including adherence to the protocol, ketone testing 2-4 times per day with monitored values not greater than 0.6 mmol/L on at least two successive occasions (the first testing upon waking in a fasted state), no adverse events relating to perineal infection or symptomatic postural hypotension, and no evidence of significant hypoglycemia <54 mg/dL, or any other listed adverse effects of the medication. Participants in the control arm were directed to use the study CGM for 1-2 weeks. Sample Size: The total sample size was projected to be 40 participants, assuming 1) 1:1:1:1 randomization; 2) 90% power and type 1 error a=0.01, further reinforcing the feasibility of hierarchical analyses. The projected recruitment sample was n=50, to accommodate up to 20% attrition rate without sacrificing statistical power. Analytical methods: For the primary analysis, TIR during the day in the 4-week AID period was compared between the two EMPA groups versus the two NOEMPA groups using a linear mixed-effects regression model while adjusting for pre-randomization HbAlc and age. […]

[1] = overall, CIQ-EMPA vs. BIQ-NOEMPA, BIQ-EMPA vs. CIQ-NOEMPA
[2] = overall, CIQ-EMPA vs. CIQ-NOEMPA, BIQ-EMPA vs. BIQ-NOEMPA
[3] = overall, CIQ-EMPA vs. CIQ-NOEMPA, BIQ-EMPA vs. BIQ-NOEMPA, listed as AID-EMPA
[4] = overnight, CIQ-EMPA vs. BIQ-EMPA
[5] = overnight, CIQ-EMPA vs. BIQ-EMPA, listed as AID-EMPA
[6] = overnight, CIQ-EMPA vs. BIQ-NOEMPA, BIQ-EMPA vs. CIQ-NOEMPA
[7] = overnight, CIQ-EMPA vs. CIQ-NOEMPA, BIQ-EMPA vs. BIQ-NOEMPA

`OC[C@H]1O[C@@H](c2ccc(Cl)c(Cc3ccc(O[C@H]4CCOC4)cc3)c2)[C@H](O)[C@@H](O)[C@@H]1O` [CIQ-EMPA, empagliflozin] was tested, and the “Difference: CGM HBGI” value [1] was −5.4, the “Difference: CGM LBGI” value [1] was −0.1 and the “Difference: % CGM time >180 mg/dL (>10.0 mmol/L)” value [2] was −22.3 percentage points. The “Difference: CGM HBGI” value [2] was −2.7, the “Difference: CGM LBGI” value [2] was 0 and the “Difference: CGM SD” value [2] was -12.3 mg/dL. The “Difference: % CGM time 70-180 mg/dL (<3.9-10.0 mmol/L)” value [3] was “+14.7 percentage points”, the “Difference: % CGM time >180 mg/dL (>10.0 mmol/L)” value [3] was −12.3 percentage points and the “Difference: % CGM time >250 mg/dL (>13.9 mmol/L)” value [3] was −4.9 percentage points. For the same compound, the “% CGM time <70-140 mg/dL (<3.9-7.8 mmol/L)” value (overall, n = 16, mean ± SD) was 59.6 ± 13.7%, the “% CGM time <70-180 mg/dL (<3.9-10.0 mmol/L)” value (overall, n = 16, mean ± SD) was 83 ± 10.6% and the “CGM CV (%)” value (overall, n = 16, mean ± SD) was 29.4 ± 3.6%. The “CGM SD” value (overall, n = 16, mean ± SD) was 40.5 ± 9.4 mg/dL, the “Mean CGM glucose” value (overall, n = 16, mean ± SD) was 137 ± 18.6 mg/dL and the “% CGM time <50 mg/dL (<2.8 mmol/L)” value (overall, n = 16) was 0(0-0.2) %. For the same compound, the “% CGM time <60 mg/dL (<3.3 mmol/L)” value (overall, n = 16) was 0.3(0.1-0.5) %, the “% CGM time <70 mg/dL (<3.9 mmol/L)” value (overall, n = 16) was 1.1(0.5-1.5) % and the “% CGM time >180 mg/dL (>10.0 mmol/L)” value (overall, n = 16) was 11.5(7-19) %. For the same compound, the “% CGM time >250 mg/dL (>13.9 mmol/L)” value (overall, n = 16) was 1.1(0.2-2.9) %, the “% CGM time >300 mg/dL (>16.7 mmol/L)” value (overall, n = 16) was 0(0-0.5) % and the “CGM HBGI” value (overall, n = 16) was 2.7(2-4.4). For the same compound, the “CGM LBGI” value (overall, n = 16) was 0.5(0.4-0.6), the “Difference (95% CI): % CGM time 70 mg/dL (<3.9 mmol/L)” value [4] was −1.5 percentage points and the “Difference (95% CI): % CGM time <50 mg/dL (<2.8 mmol/L)” value [4] was 0.2 percentage points. For the same compound, the “Difference (95% CI): % CGM time <60 mg/dL (<3.3 mmol/L)” value (“Difference (95% CI) … (<3.3 mmol/L)” for short) [4] was −0.4 percentage points, the “Difference (95% CI): % CGM time >250 mg/dL (>13.9 mmol/L)” value (“Difference (95% CI) … (>13.9 mmol/L)” below) [4] was −2.5 percentage points and the “Difference (95% CI): % CGM time >300 mg/dL (>16.7 mmol/L)” value [4] was −2.5 percentage points. For the same compound, the “Difference (95% CI): CGM CV (%)” value [4] was −5.1%, the “Difference (95% CI): CGM HBGI” value [4] was −2.1 and the “Difference (95% CI): CGM LBGI” value [4] was −0.5. The “Difference (95% CI): CGM SD” value [4] was -10.2 mg/dL, the “Difference (95% CI): Mean CGM glucose” value [4] was -11.7 mg/dL and the “Difference (95% CI): % CGM time 70-180 mg/dL (3.9-10.0 mmol/L)” value [5] was “+10.2 percentage points”. For the same compound, the “Difference (95% CI): % CGM time >180 mg/dL (>10.0 mmol/L)” value (from here on “Difference (95% CI) … (>10.0 mmol/L)”) [5] was −9.5 percentage points, the “Difference (95% CI) … (<3.3 mmol/L)” value [6] was −0.3 percentage points and the “Difference (95% CI) … (>10.0 mmol/L)” value [6] was −27.3 percentage points. For the same compound, the “Difference (95% CI) … (>13.9 mmol/L)” value [6] was −16.4 percentage points, the “Difference (95% CI): % CGM time >300 mg/dL (>16.7 mmol/L)” value [6] was −7.6 percentage points and the “Difference (95% CI): CGM CV (%)” value [6] was −11.1%. For the same compound, the “Difference (95% CI): CGM HBGI” value [6] was −7.3, the “Difference (95% CI): CGM LBGI” value [6] was −0.3 and the “Difference (95% CI): CGM SD” value [6] was -27.1 mg/dL. For the same compound, the “Difference (95% CI): Mean CGM glucose” value [6] was -36.2 mg/dL, the “Difference (95% CI): % CGM time 70 mg/dL (<3.9 mmol/L)” value [7] was −1.1 percentage points and the “Difference (95% CI): % CGM time <50 mg/dL (<2.8 mmol/L)” value [7] was −0.1 percentage points. The “Difference (95% CI) … (<3.3 mmol/L)” value [7] was −0.6 percentage points, the “Difference (95% CI) … (>10.0 mmol/L)” value [7] was −14.6 percentage points and the “Difference (95% CI) … (>13.9 mmol/L)” value [7] was −5.5 percentage points. For the same compound, the “Difference (95% CI): CGM HBGI” value [7] was −3.2, the “Difference (95% CI): CGM LBGI” value [7] was 0.2 and the “Difference (95% CI): CGM SD” value [7] was -18.3 mg/dL. For the same compound, the “Difference (95% CI): Mean CGM glucose” value [7] was -21.5 mg/dL, the “% CGM time 70-140 mg/dL (3.9-7.8 mmol/L)” value (overnight, n = 16, mean ± SD) was 64 ± 18% and the “% CGM time 70-180 mg/dL (3.9-10.0 mmol/L)” value (overnight, n = 16, mean ± SD) was 87 ± 13%. The “CGM CV (%)” value (overnight, n = 16, mean ± SD) was 25.4 ± 5.4%, the “CGM SD” value (overnight, n = 16, mean ± SD) was 34.2 ± 10.7 mg/dL and the “Mean CGM glucose” value (overnight, n = 16, mean ± SD) was 133 ± 20 mg/dL. For the same compound, the “% CGM time <50 mg/dL (<2.8 mmol/L)” value (overnight, n = 16) was 0(0-0.3) %, the “% CGM time <60 mg/dL (<3.3 mmol/L)” value (overnight, n = 16) was 0.3(0-0.5) % and the “% CGM time <70 mg/dL (<3.9 mmol/L)” value (overnight, n = 16) was 0.7(0-1.3) %. The “% CGM time >180 mg/dL (>10.0 mmol/L)” value (overnight, n = 16) was 6.3(3.3-11.1) %, the “% CGM time >250 mg/dL (>13.9 mmol/L)” value (overnight, n = 16) was 0(0-2) % and the “% CGM time >300 mg/dL (>16.7 mmol/L)” value (overnight, n = 16) was 0(0-0.4) %. For the same compound, the “CGM HBGI” value (overnight, n = 16) was 2.1(1.3-2.7), the “CGM LBGI” value (overnight, n = 16) was 0.4(0.2-0.5) and the “night-time in range, h out of 8 h” value (overnight, out of 8 h of the night-time, listed as AID-EMPA) was 7 h.
